# How the values were obtained:
# LO2 cells = experiment: MTT assay on normal liver LO2 cells; type: cell-based, human; conditions: increasing dosages, 72 h
# Procedure: Human cancer cell lines (SMMC-7721, Bel7402, Huh7, HCT116), drug-resistant cell lines (Bel7402/5-FU), and human normal hepatocyte cells (LO2) were purchased from Institute of Cell Biology (Shanghai, China).
# (§1) Briefly, appropriate cells (1 × 10^4 cells/mL) were placed into 96-well plates in 100 μL of DMEM medium overnight. Then adding 100 μL of evaluated compounds into individual well for 72 h while 0.1% DMSO aqueous solution was treated as the negative control. After incubation with 30 μl MTT (5 mg/mL) for 4 h in all well, and ELISA plate reader measured absorbance of each well at 570 nm. Then calculating cytotoxicity effect of evaluated compounds through the formula: Cell inhibitory percentage (%) = (1−OD of treatment group/OD of control) × 100%. GraphPadPrism (4.03) calculated data to afford Corresponding IC50 values.
# FIGURE 3 Inhibition potency of CHC against the proliferation on Bel7402, Bel7402/5-FU, and LO2 cells. Cells were treated with CHC at the indicated concentrations for 72 h. MTT assays were performed to evaluate cell proliferation. The inhibition (%) rate (mean ± SD) were from three separate experiments.
# [1] = system: Bax, Bcl-2, caspase-3 in Bel7402/5-FU cells; experiment: Western blotting of apoptosis-related proteins; type: cell-based, human; conditions: 72 h
# Procedure: (§2) The HDAC, autophagy and apoptosis-related proteins were analyzed according to Western blotting assay. […]. And anti-Ac-histone H3, anti-Ac-histone H4, anti-Ac-α-tubulin, anti-Bax, anti-Bcl2, anti-H2AX (S139ph), anti-CDK1, anti-cyclin B, and anti-β-actin antibodies (Cell Signaling Technology, MA, United States) detected the target proteins after membranes were blocked with 5% fat-free milk. The peroxidase-conjugated secondary antibodies detected the bound antibodies for 1 h and visualized according to improved chemiluminescent reagent.
# […]; (B) The relative expression levels of each protein (Bax, Bcl-2, pro-caspase-3, and cleaved caspase-3) were quantitatively analyzed using β-actin as reference. The data are presented as the mean ± SD of three separated assays. *p < 0.01 vs. control.
# Huh7 = experiment: MTT antiproliferative assay, Huh7; type: cell-based; conditions: Homo sapiens, Huh-7, 72 h, mean ± SD of three experiments, read-out: In vitro antiproliferative activity (IC50) Huh7
# Procedure: as §1, with “100%.” for “100%. GraphPadPrism (4.03) calculated data to afford Corresponding IC50 values.”
# recombinant human HDAC6 = biological target: T1, recombinant human HDAC6 (Homo sapiens, UniProt Q9UBN7); experiment: HDAC fluorimetric assay, HDAC6; type: biochemical
# T1 construct: purchased Enzo Life Sciences Inc
# T1 sequence (Q9UBN7 1-1215): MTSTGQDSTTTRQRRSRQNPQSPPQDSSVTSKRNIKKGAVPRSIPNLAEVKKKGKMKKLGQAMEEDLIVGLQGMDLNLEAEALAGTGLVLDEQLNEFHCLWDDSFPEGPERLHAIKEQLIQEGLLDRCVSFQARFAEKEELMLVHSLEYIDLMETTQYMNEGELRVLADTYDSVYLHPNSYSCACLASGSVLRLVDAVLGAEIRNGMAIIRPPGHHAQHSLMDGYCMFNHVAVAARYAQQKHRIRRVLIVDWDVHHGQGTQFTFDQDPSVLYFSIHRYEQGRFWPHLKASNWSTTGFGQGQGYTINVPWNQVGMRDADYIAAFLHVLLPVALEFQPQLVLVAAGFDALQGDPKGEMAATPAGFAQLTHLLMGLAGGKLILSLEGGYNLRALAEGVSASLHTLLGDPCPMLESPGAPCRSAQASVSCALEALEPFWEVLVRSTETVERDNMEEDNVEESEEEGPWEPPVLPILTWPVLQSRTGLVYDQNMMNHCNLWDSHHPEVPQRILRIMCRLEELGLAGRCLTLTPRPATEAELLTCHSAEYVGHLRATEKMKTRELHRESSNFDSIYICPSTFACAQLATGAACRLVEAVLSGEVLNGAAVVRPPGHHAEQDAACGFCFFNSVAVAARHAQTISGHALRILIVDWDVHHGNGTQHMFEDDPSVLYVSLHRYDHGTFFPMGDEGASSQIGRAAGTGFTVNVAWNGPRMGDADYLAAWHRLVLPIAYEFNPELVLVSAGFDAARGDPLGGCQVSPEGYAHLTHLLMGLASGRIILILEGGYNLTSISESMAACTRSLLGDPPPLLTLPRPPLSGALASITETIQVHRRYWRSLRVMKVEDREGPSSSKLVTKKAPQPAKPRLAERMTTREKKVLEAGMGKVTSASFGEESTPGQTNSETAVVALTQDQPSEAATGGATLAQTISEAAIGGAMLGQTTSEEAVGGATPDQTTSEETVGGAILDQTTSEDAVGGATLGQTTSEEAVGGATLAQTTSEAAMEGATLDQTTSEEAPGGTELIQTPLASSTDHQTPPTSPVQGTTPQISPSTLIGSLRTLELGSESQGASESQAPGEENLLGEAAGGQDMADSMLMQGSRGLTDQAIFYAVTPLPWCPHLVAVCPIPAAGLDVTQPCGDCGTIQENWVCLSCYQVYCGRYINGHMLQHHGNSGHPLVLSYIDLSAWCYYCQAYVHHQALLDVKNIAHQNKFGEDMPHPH
# Procedure: The assay was conducted according to the HDAC1/3/6/8 assay kit (Enzo Life Sciences Inc.). Each different concentrations of evaluated compounds were, respectively, incubated with each HDAC1/3/6/8 at coupling of corresponding HDAC substrate (Boc-Lys (Ac)-AMC) at 37°C for 60 min. Then stopping the reaction under adding lysine developer.
# [2] = system: cyclin B and CDK1 in Bel7402/5-FU cells; experiment: Western blotting of cyclin B and CDK1; type: cell-based, human; conditions: 2.0 and 5.0 μM, 72 h, immunoblotting
# Procedure: as §2
# . Values (mean ± SD) were obtained from three separate experiments. *p < 0.01 vs. control.
# HCT116 = experiment: MTT antiproliferative assay, HCT116; type: cell-based; conditions: Homo sapiens, HCT-116, 72 h, mean ± SD of three experiments, read-out: In vitro antiproliferative activity (IC50) HCT116
# Procedure: as §1, with “100%.” for “100%. GraphPadPrism (4.03) calculated data to afford Corresponding IC50 values.”
smiles,measurement,setting,value
"CN(C)c1ccc(-c2nc(C(=O)NCc3ccc(/C=C/C(=O)NO)cc3)cc3c2[nH]c2ccccc23)cc1 [CHC, (E)-N-(4-(3-(hydroxyamino)-3-oxoprop-1-en-1-yl)benzyl)-1-(4-dimethylaminophenyl)-9H-pyrido [3,4-b]indole-3-carboxamide]",cytotoxicity on normal liver LO2 cells growth,LO2 cells,minimal cytotoxicity effects
same,"expression of Bax, Bcl-2 and cleavage of caspase-3",[1],significantly upregulate the expression of Bax and cleavage of caspase-3 and downregulate the expression of Bcl-2
same,IC50,Huh7,2890 ± 320 nM
same,IC50 on HDAC6 relative to SAHA,recombinant human HDAC6; compared with SAHA,eight-fold lower
same,IC50,recombinant human HDAC6; mean ± SD of three experiments,7.6 ± 1 nM
same,fold lower IC50 on HDAC6 than on HDAC3,recombinant human HDAC6; selectivity HDAC6 over HDAC3,18 fold
same,expression of cyclin B and CDK1,[2],downregulated the expression of cyclin B and CDK1
same,IC50,HCT116,2050 ± 190 nM
